Test results as given in US20250092360A1, “METHODS AND COMPOSITIONS FOR GENERATING SOMATOSTATIN+ INTERNEURONS FROM HUMAN FOREBRAIN NEURAL PROGENITOR CELLS” (Trailhead Biosystems Inc., priority 2023, published 2025).
Values joined by “and” are separate entries in the source; they are usually repeats but may differ in a detail not shown here. Identical values can stand only once. “Also recorded” adds a separate entry of the source.

B1: GDNF: Glial cell line-derived neurotrophic factor; can activate the GDNF pathway (protein, UniProt P39905 78-211, looked up)
Glial cell line-derived …: SPDKQMAVLPRRERNRQAAAANPENSRGKGRRGQRGKNRGCVLTAIHLNVTDLGLGYETKEELIFRYCSGSCDAAETTYDKILKNLSRNRRLVSDKVGQACCRPIAFDDDLSFLDDNLVYHILRKHSAKRCGCI

Assays:
[1] = system: forebrain-committed neural stem cells; test: HD-DoE stage 2, 12-factor experiment: NKX2-1 expression; type: cell-based, human; conditions: model / dynamic profile, in words
Description: To further guide the differentiation of forebrain-committed neural stem cells to ventral forebrain neural stem cells at stage 2, a HD-DoE experiment was performed for 3 days after termination of stage 1 treatment. […] This 12-factor experiment included LDN193189, BMP7, PD0325901, MK2206, A8301, XAV939, CHIR99021, Purmorphamine, SANT-1, AGN193109, TTNPB and GSI-XX. […]

[2] = system: medial ganglionic eminence (MGE)-derived neural progenitors; test: Factor criticality analysis, stage 4 recipe; type: cell-based, human; conditions: FIG. 27, in words
Description: To assess the impact of elimination of each validated factor, dynamic profile analysis was again used to compare the expression levels of genes of interest in the absence of each finalized factor while the others were present in the media.
In the stage 4 recipe, each of the five finalized factors was removed while the other four factors remained present in the media and the expression level of forebrain genes was assessed compared to the presence of all 6 factors. SOX6 expression was reported to determine the cortical interneuron-precursors cell fate (see e.g., Azim et al. (2009) Nature Neurosci. 12:1238-1247; Batista-Brito et al. (2009) Neuron 63:466-481). Therefore, optimization of SOX6 expression was focused on at this stage.

[3] = system: stage 2 neural stem cells; test: HD-DoE stage 3 experiment: ASCL1, LHX6, DLX1 expression; type: cell-based, human
Description: To further guide the cells to medial ganglionic eminence progenitor fate, an additional HD-DoE experiment was performed for 3 days on cells that were treated with stage 1 and stage 2 media for total of 6 days prior to start of the experiment. This experiment included 13 effectors, LDN193189, A8301, GNF5837, AZD3147, GSI-XX, Takinib, PD0325901, PD173074, BLU9931, IGF-1, MHY1485, Purmorphamine and Prostratin. In this model, we focused on maximum expression of genes expressed in neuronal progenitor cells in medial ganglionic eminence (MGE) region including ASCL1, LHX6 and DLX1 (Silberberg et al. (2016) Neuron 92:59-74). When the model was optimized for maximum expression of ASCL1 at 1700, A8301, GSI-XX, Purmorphamine and Takinib, which is an inhibitor of TAK1 pathway, had the highest factor contributions, 18.1, 14.1, 12.7 and 10.1 respectively. […] MHY 1485 also had positive contribution however the factor was below 2 (FIG. 9).
Therefore, six effectors including A8301, GSI-XX, Takinib, GNF5837, IGF-1 and Purmorphamine were finalized as ingredients of stage 3 differentiation media. A representative recipe for Stage 3 differentiation is summarized below in Table 3.

[4] = system: stage 2 neural stem cells; test: Factor criticality analysis, stage 3 recipe; type: cell-based, human; conditions: other five stage 3 factors present
Description: (§1) To assess the impact of the elimination of each validated factor, dynamic profile analysis was used and compared the expression level of genes of interest in absence of each finalized factor while others are present.
In the stage 3 recipe, each of the six finalized factors were removed while the other five factors remained present and the expression levels of ASCL1, DLX1 and LHX6 were assessed compared to the presence of all six factors. […] As expected, in the absence of IGF-1, the value of DLX1 increases to 410, however, ASCL1 and LHX6 decreased to 1390 and 220, respectively.

[5] = system: medial ganglionic eminence (MGE)-derived neural progenitors; test: HD-DoE stage 4, 12-factor experiment: SOX6 expression; type: cell-based, human; conditions: for impact on expression of SOX6: dynamic profile, in words; for factor contribution, expression of SOX6: positive impact, model optimized for maximal SOX6 at 1442
Source text: These effectors are small chemical compounds or proteins. They are commonly used during the differentiation of stem cells to specific cell linage. The choice of the effectors was based on the current literature on forebrain neural induction and differentiation of neural progenitor cells to mature neurons.
To evaluate the effectors on SST differentiation, experiments with 8 or 12 factors were designed to assess the responses of cells to 48 or more combinations of effectors in a range of concentrations. To analyze the models, we focused on expression of genes involved in development and patterning of the forebrain interneurons maturation including LHX6 (Liodis et al. (2007) J. Neurosci. 27:3078-3089; Yuan et al. (2018) Elife 7: e37382), SOX6 (Azim et al. (2009) Nature Neurosci. 12:1238-1247; Batista-Brito et al. (2009) Neuron 63:466-481), DLX5 (de Lombares et al. (2019) Aging (Albany NY) 11:6638; Wang et al. (2010) J. Neurosci. 30:5334-5345) and ASCL1 (Barretto et al. (2020) J. Neurosci. Meth. 334:108548; Shi et al. (2016) J. Biol. Chem. 291:13560-13570). At later stages we focused on interneuron maturation genes including somatostatin and absence of Parvalbumin (Horn and Nicoll (2018) Proc. Natl. Acad. Sci. 115:589-594). The impacts of each effector on gene expression level are defined by a parameter called factor contribution that is calculated for each effector during the modeling.
To identify the recipe for differentiation at stage 4, at least 48 different combinations of effectors were robotically prepared by the Design-of-Experiments compression through D-optimality. The effector combinations were prepared in a basal media and were subsequently added to the cells, which were then allowed to differentiate. Three days later, RNA extraction was performed, and gene expression levels were examined using quantitative PCR analysis. The data was normalized and modeled using partial least squares regression analysis to the effector design, resulting in the generation of gene-specific models, which after model tuning for maximal predictive power, provided explanation of the effectors ability to control the expression of individual genes, combinatorically, and individually. Solutions within the tested space could then be explored to address desirability.
IGF-1 activates the IGF-1 pathway, promotes neuron axonal growth, and establishes the synapse of interneurons. GDNF is the […] and can activate the GDNF pathway. MK2206 is an AKT inhibitor and can inhibit cell proliferation and promote neuronal maturation. PD173074 and BLU-554 are FGFR inhibitors. The FGF pathway is required for the maintenance of neural progenitor cells. Inhibition of the FGFR pathway promotes neural maturation. GSI-XX is a notch pathway inhibitor. Notch pathway inhibits neural progenitor cell differentiation. Inhibition of the Notch pathway promotes neural differentiation.
To find the set of factors that have the potential to optimize SOX6 in this experiment, a new assessment was done through dynamic profile analysis with focus on maximal expression of SOX6.

[6] = system: human pluripotent stem cells; test: HD-DoE stage 1, additional experiment: FEZF2 expression; type: cell-based
Description: To identify the recipe for stage 1 of differentiation, 96 different combinations of effectors generated using Design-of-Experiments compression through D-optimality were robotically prepared. The effector combinations were prepared in a basal media and were subsequently added to the cells, which were then allowed to differentiate. Three days later RNA extraction was performed, and gene expression was obtained using quantitative PCR analysis. The data were normalized and modeled using partial least squares regression analysis to the effector design, resulting in the generation of gene-specific models, which after model tuning for maximal Q2 predictive power, provided explanation of the effectors ability to control the expression of individual genes, combinatorically, and individually. Solutions within the tested space could then be explored to address desirability. To further enhance the conditions for forebrain differentiation from pluripotency, an additional HD-DoE experiment was performed. Additional gene regulatory models were obtained that were used for preparation of the differentiation protocol. The factors in this experiment included LDN193189, PD173074, BLU9931, Purmorphamine, SC79, MK2206, ZM336372, PD0325901, CHIR99021, XAV939, UCLA-GP130, Tofacitinib and GO6983. […] Dynamic profile analysis was also used to assess the interaction between the effectors.

[7] = system: human pluripotent stem cells; test: Factor criticality analysis, stage 1 recipe (dynamic profile analysis); type: cell-based; conditions: 3500 with all factors; FIG. 12
Source text: as §1, with “present. […] When Purmorphamine was removed, levels of FEZF2 and SIX3 were decreased to 1000 and below 3000, while levels of OTX2 increased to 6500.” for “present.”

[8] = system: forebrain-committed neural progenitor cells; test: HD-DoE stage 5, 8-factor experiment (JQ1, Indolactam-V ...): Somatostatin expression; type: cell-based, human
Description: To further guide the differentiation of forebrain-committed neural progenitor cells to somatostatin interneuron cells at stage 5, HD-DoE experiments were performed for 3 days after termination of stage 4 treatment. At this time, we focused on maximum expression of SST that was expressed in Somatostatin (+) interneurons and minimum expression of Parvalbumin that is another type of interneurons. This 8-factor experiment included JQ1, (−)-Indolactam-V, Oleic acid, BDNF, IGF-1, 2-phospho-L-Ascorbic acid, Albumax, MK2206. When the model was maximized for expression of Somatostatin, six effectors were identified that could increase its expression levels, including (−)-Indolactam-V, Oleic acid, BDNF, 2-phospho-L-ascorbic acid, Albumax, and MK2206, as shown in FIG. 21. Using dynamic profile analysis, the results of which are shown in FIG. 22, the model was modified to achieve the maximum expression level of Somatostatin and therefore (−)-Indolactam-V, BDNF, and 2-phospho-L-ascorbic acid were included while JQ-1, Oleic acid, Albumax and MK2206 were excluded. Considering the model at different optimization settings for maximum differentiation of cells toward ventral forebrain, the recipe for stage 5 of differentiation included (−)-Indolactam-V, BDNF, IGF-1, and 2-phospho-L-ascorbic acid from this HD-Doe experiment.

[9] = system: forebrain-committed neural progenitor cells; test: HD-DoE stage 5, 8-factor experiment (GDNF, BDNF, NT-3 ...): Somatostatin expression; type: cell-based, human; conditions: FIG. 24 dynamic profile, in words
Description: To investigate the effects of other factors on differentiation of forebrain-committed neural progenitor cells to Somatostatin interneuron cells, an additional HD-DoE experiment was performed for 3 days on cells that were treated with stage 1 to stage 4 medium for a total of 12 days prior to the new experiment. This experiment, the results of which are shown in FIG. 23, included eight effectors, GDNF, BDNF, NT-3, ß-NGF, Linoleic acid, 5-Cholesten-3β, LIF and TGF-β3. In this model, we focused on maximum expression of Somatostatin gene expressed in Somatostatin (+) interneurons (Urban-Ciecko and Barth (2016) Nature Reviews Neurosci. 17:401-409). When the model was optimized for maximum expression of Somatostatin, BDNF, NT-3, beta-NGF and Linoleic acid had the highest factor contributions, 25.7, 2, 19.9, 23.5, respectively.
Therefore, the latter were excluded in the recipe.

Molecule	impact on expression of NKX2-1 [1]	effect on PVALB expression [2]	effect on SOX6 expression [2]	effect on Somatostatin expression [2]	impact on expression of ASCL1 ([3]; dynamic profile, in words)	impact on expression of LHX6 ([3]; dynamic profile, in words)	factor contribution, expression of ASCL1 ([3]; positive, model optimized for maximum ASCL1 at 1700)	expression level of DLX1 when the factor is removed ([4]; 220 with all six factors)	expression level of LHX6 when the factor is removed ([4]; 240 with all six factors)	expression level of ASCL1 when the factor is removed ([4]; 1650 with all six factors)	impact on expression of SOX6 [5]	factor contribution, expression of SOX6 [5]	impact on expression of FEZF2 ([6]; dynamic profile, in words)	factor contribution, expression of FEZF2 ([6]; positive impact, additional stage 1 experiment optimized for FEZF2)	expression level of FEZF2 when the factor is removed [7]	impact on expression of Somatostatin ([8]; FIG. 21/22, in words)	factor contribution, expression of Somatostatin ([8]; positive, 8-factor experiment of FIG. 21)	impact on expression of Somatostatin [9]
C[C@H](NC(=O)Cc1cc(F)cc(F)c1)C(=O)N[C@@H]1C(=O)N(C)c2ccccc2-c2ccccc21 [GSI-XX]	increase	minimal effect	increase	contribute	Positive impact	Positive impact	14.1 and 14	50	140	1200	positive impact	3.6						
NC1(c2ccc(-c3nc4ccn5c(=O)[nH]nc5c4cc3-c3ccccc3)cc2)CCC1 [MK2206]	increase	decrease	increase								positive impact	7.2	positive impact	11 and 12.2	2700	increase; also recorded: positive impact	4.2	
B1			increase								positive impact	21						negative impact
